System: western and northern corn rootworm
Test: Field trial, corn rootworm damage by Iowa class and synergy test, Example 3
Type: in vivo
Text: A field trial was established and completed in accordance with pertinent protocols and in conformance with USDA notification requirements. The purpose of the trial was to determine the efficacy of transgenic event Cry3Bb.11231 in corn seed in combination with corn rootworm seed treatments using imidacloprid.
For each growing site that was selected, the plot design included the following:
The following seed treatment combinations were used for each growing area:
All seed treatments with pesticides were carried out as described in Example 1. In seed treatment number 1 and 2, Gaucho® was used for wire worm protection, but at levels sufficiently low that it would be expected to have no effect on corn rootworms (i.e., at a treatment level of about 60 gm of active/100 kg seed or 0.16 mg active/kernel), otherwise, seed receiving treatment number 2 had only transgenic event Cry3Bb.11231 and no pesticide treatment that would be expected to be effective against corn rootworm.
For seeds having treatments numbered 3 through 5, the pesticides were applied by the methods described in Example 1. For seeds having treatment numbers 6 and 7, commercially available Force® 3G and Lorsban® 15G were applied to the soil in a 5″ band at the time of sowing. The levels of application are as shown and are within the ranges recommended for standard commercial practice.
Corn seeds to be tested were planted and grown at four different locations across several Midwestern states in the United States corn belt according to the protocol described above.
The determination of damage by corn root worm was made according to the protocol described in Example 2.
Cry3Bb.11231 transgenic event was tested for possible synergy at a level of rootworm damage of 3-6. In the first test, shown in Table 2, the percentage of test plants having damage levels of from 3 to 6, on the Iowa 1-6 Scale, was determined for the control and for seeds treated with the pesticide at two levels, and for seeds having the transgenic event, alone and in combination. The following formula was then used to calculate a “synergy threshold”: (% of control Cry3Bb.11231)*(% of control imidacloprid treatment)/100.
This threshold was compared against the percent of control for the treatment combination (i.e., Cry3Bb.11231 with imidacloprid @ 400 gm/100 kg). If the treatment combination percent of control was below the threshold, then it was concluded that there was synergy.
It was believed that the measurement of rootworm damage at higher damage levels (i.e., levels 3-6) is a useful indicator that correlates with subsequent yield loss due to such damage. The reason for this is that rootworm damage at levels 1 and 2 seldom causes corn plants to fall over and lodge, and such minimal root loss is not believed to reduce the number or weight of kernels per ear. However, root damage at levels of 3 and above increasingly causes lodging and loss of yield. Therefore, it is believed that the summed damage levels of 3-6 (and in some cases, 4-6 and 5 and 6), provides a useful indication of the effect of corn rootworm damage on subsequent corn yield.

O=[N+]([O-])NC1=NCCN1Cc1ccc(Cl)nc1 [Imidacloprid, 1-[(6-chloro-3-pyridinyl)methol]-N-nitro-2-imidazolidinimime]
effectiveness against corn rootworm damage (imidacloprid at 400 gm/100 kg of seed): effective against corn rootworm damage | CORN ROOTWORM DAMAGE IN EACH IOWA CLASS (IOWA 1-6 SCALE) 1 (number of plants in Iowa class 1, imidacloprid at 400 g/100 kg seed): 3 | CORN ROOTWORM DAMAGE IN EACH IOWA CLASS (IOWA 1-6 SCALE) 2 (number of plants in Iowa class 2, imidacloprid at 400 g/100 kg seed): 15 | CORN ROOTWORM DAMAGE IN EACH IOWA CLASS (IOWA 1-6 SCALE) 3 (number of plants in Iowa class 3, imidacloprid at 400 g/100 kg seed): 36 | CORN ROOTWORM DAMAGE IN EACH IOWA CLASS (IOWA 1-6 SCALE) 4 (number of plants in Iowa class 4, imidacloprid at 400 g/100 kg seed): 21 | CORN ROOTWORM DAMAGE IN EACH IOWA CLASS (IOWA 1-6 SCALE) 5 (number of plants in Iowa class 5, imidacloprid at 400 g/100 kg seed): 5 | CORN ROOTWORM DAMAGE IN EACH IOWA CLASS (IOWA 1-6 SCALE) 6 (number of plants in Iowa class 6, imidacloprid at 400 g/100 kg seed): 0
